Measurements: ChEMBL document CHEMBL1201862, “PubChem BioAssay data set” (2004)
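These data come from cells grown in 96-well plates and exposed to compound for 48 hours at five concentrations. GI50: concentration for 50% inhibition of growth.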 The source made the active and inactive calls. No stated cut-off is given here; in the data, active = GI50 up to about 1.1 µM and inactive = higher.

How the values were obtained:
Test in all cases: DTP human tumour cell line panel, 48 h
NCI-H226 = system: NCI-H226
SNB-75 = system: SNB-75
HCT-116 = system: HCT-116
MDA-MB-435 = system: MDA-MB-435
CCRF-CEM = system: CCRF-CEM
SK-MEL-5 = system: SK-MEL-5
HOP-62 = system: HOP-62
NCI-H460 = system: NCI-H460
OVCAR-8 = system: OVCAR-8
BT-549 = system: BT-549
DU-145 = system: DU-145
MDA-MB-231 = system: MDA-MB-231
EKVX = system: EKVX
SF-539 = system: SF-539
KM12 = system: KM12
ACHN = system: ACHN
CAKI-1 = system: CAKI-1
MCF7 = system: MCF7
COLO 205 = system: COLO 205
SW-620 = system: SW-620
A498 = system: A498
SNB-19 = system: SNB-19
SK-MEL-2 = system: SK-MEL-2
M14 = system: M14
NCI/ADR-RES = system: NCI/ADR-RES
HT-29 = system: HT-29
K562 = system: K562
UACC-257 = system: UACC-257
OVCAR-5 = system: OVCAR-5
OVCAR-4 = system: OVCAR-4
MDA-N = system: MDA-N
SK-MEL-28 = system: SK-MEL-28
RPMI-8226 = system: RPMI-8226
UO-31 = system: UO-31
LOX IMVI = system: LOX IMVI
Hs-578T = system: Hs-578T
SN12C = system: SN12C
SF-268 = system: SF-268
OVCAR-3 = system: OVCAR-3
SF-295 = system: SF-295
RXF 393 = system: RXF 393
HCT-15 = system: HCT-15
U-251 = system: U-251
MOLT-4 = system: MOLT-4
786-0 = system: 786-0
HOP-92 = system: HOP-92
PC-3 = system: PC-3
HCC 2998 = system: HCC 2998
NCI-H522 = system: NCI-H522
Malme-3M = system: Malme-3M
A549 = system: A549
NCI-H23 = system: NCI-H23
T47D = system: T47D
SR = system: SR
TK-10 = system: TK-10
UACC-62 = system: UACC-62
HL-60 = system: HL-60
IGROV-1 = system: IGROV-1
SK-OV-3 = system: SK-OV-3

With `C/C(=N\c1ccc(Cl)cc1)c1ccncc1` the GI50 (NCI-H226) was > 100 µM (inactive), the GI50 (SNB-75) was > 100 µM (inactive) and the GI50 (HCT-116) was > 100 µM (inactive). For the same compound, the GI50 (MDA-MB-435) was 1.9 µM (inactive), the GI50 (CCRF-CEM) was 1.22 µM (inactive) and the GI50 (SK-MEL-5) was 2.13 µM (inactive). For the same compound, the GI50 (HOP-62) was > 100 µM (inactive), the GI50 (NCI-H460) was > 100 µM (inactive) and the GI50 (OVCAR-8) was > 100 µM (inactive). For the same compound, the GI50 (BT-549) was > 100 µM (inactive), the GI50 (DU-145) was > 100 µM (inactive) and the GI50 (MDA-MB-231) was > 100 µM (inactive). For the same compound, the GI50 (EKVX) was 27.9 µM (inactive), the GI50 (SF-539) was 4.31 µM (inactive) and the GI50 (KM12) was > 100 µM (inactive). The GI50 (ACHN) was 0.233 µM (active), the GI50 (CAKI-1) was > 100 µM (inactive) and the GI50 (MCF7) was 32.4 µM (inactive). For the same compound, the GI50 (COLO 205) was 5.64 µM (inactive), the GI50 (SW-620) was 2.72 µM (inactive) and the GI50 (A498) was 3.96 µM (inactive). The GI50 (SNB-19) was > 100 µM (inactive), the GI50 (SK-MEL-2) was > 100 µM (inactive) and the GI50 (M14) was > 100 µM (inactive). For the same compound, the GI50 (NCI/ADR-RES) was > 100 µM (inactive), the GI50 (HT-29) was > 100 µM (inactive) and the GI50 (K562) was > 100 µM (inactive). For the same compound, the GI50 (UACC-257) was 22.6 µM (inactive), the GI50 (OVCAR-5) was > 100 µM (inactive) and the GI50 (OVCAR-4) was > 100 µM (inactive). The GI50 (MDA-N) was > 100 µM (inactive), the GI50 (SK-MEL-28) was 5.14 µM (inactive) and the GI50 (RPMI-8226) was 7.08 µM (inactive). The GI50 (UO-31) was 4.04 µM (inactive), the GI50 (LOX IMVI) was > 100 µM (inactive) and the GI50 (Hs-578T) was > 100 µM (inactive). For the same compound, the GI50 (SN12C) was > 100 µM (inactive), the GI50 (SF-268) was 53.5 µM (inactive) and the GI50 (OVCAR-3) was 41 µM (inactive). For the same compound, the GI50 (SF-295) was > 100 µM (inactive), the GI50 (RXF 393) was > 100 µM (inactive) and the GI50 (HCT-15) was 0.36 µM. The GI50 (U-251) was > 100 µM (inactive), the GI50 (MOLT-4) was 3.4 µM (inactive) and the GI50 (786-0) was > 100 µM (inactive). For the same compound, the GI50 (HOP-92) was > 100 µM (inactive), the GI50 (PC-3) was > 100 µM (inactive) and the GI50 (HCC 2998) was > 100 µM (inactive). The GI50 (NCI-H522) was > 100 µM (inactive), the GI50 (Malme-3M) was > 100 µM (inactive) and the GI50 (A549) was 4.73 µM (inactive). For the same compound, the GI50 (NCI-H23) was 67.8 µM (inactive) and the GI50 (T47D) was 0.809 µM (active).
In the case of `CC1C/C(=N\N(C)C)C(C#N)(C#N)C1(C#N)C#N` (stereo not given), the GI50 (NCI-H226) is reported as 30.2 µM (inactive), the GI50 (SNB-75) is reported as 9.64 µM (inactive) and the GI50 (HCT-116) is reported as 9.48 µM (inactive). The GI50 (MDA-MB-435) was 16.7 µM (inactive), the GI50 (SR) was 2.82 µM (inactive) and the GI50 (TK-10) was 13.6 µM (inactive). For the same compound, the GI50 (CCRF-CEM) was 0.91 µM (active), the GI50 (SK-MEL-5) was 18.7 µM (inactive) and the GI50 (HOP-62) was 18 µM (inactive). For the same compound, the GI50 (OVCAR-8) was 19.2 µM (inactive), the GI50 (BT-549) was 4.57 µM (inactive) and the GI50 (DU-145) was 18.2 µM (inactive). The GI50 (MDA-MB-231) was 0.583 µM (active), the GI50 (EKVX) was 22 µM (inactive) and the GI50 (SF-539) was 18.1 µM (inactive). The GI50 (KM12) was 27 µM (inactive), the GI50 (ACHN) was 8.43 µM (inactive) and the GI50 (CAKI-1) was 1.75 µM (inactive). For the same compound, the GI50 (MCF7) was 16 µM (inactive), the GI50 (COLO 205) was 1.82 µM (inactive) and the GI50 (SW-620) was 5.05 µM (inactive). The GI50 (UACC-62) was 13.8 µM (inactive), the GI50 (SNB-19) was 31.7 µM (inactive) and the GI50 (SK-MEL-2) was 22.2 µM (inactive). For the same compound, the GI50 (HL-60) was 0.857 µM (active), the GI50 (M14) was 12.2 µM (inactive) and the GI50 (NCI/ADR-RES) was 25.8 µM (inactive). For the same compound, the GI50 (HT-29) was 6.53 µM (inactive), the GI50 (K562) was 2.35 µM (inactive) and the GI50 (UACC-257) was 13.2 µM (inactive). The GI50 (OVCAR-5) was 21.6 µM (inactive), the GI50 (OVCAR-4) was 12.6 µM (inactive) and the GI50 (MDA-N) was 17.8 µM (inactive). For the same compound, the GI50 (SK-MEL-28) was 16 µM (inactive), the GI50 (RPMI-8226) was 3.92 µM (inactive) and the GI50 (UO-31) was 15.6 µM (inactive). For the same compound, the GI50 (LOX IMVI) was 7.14 µM (inactive), the GI50 (Hs-578T) was 35.6 µM (inactive) and the GI50 (IGROV-1) was 20.6 µM (inactive). For the same compound, the GI50 (SN12C) was 19 µM (inactive), the GI50 (SF-268) was 15.6 µM (inactive) and the GI50 (OVCAR-3) was 13.2 µM (inactive). For the same compound, the GI50 (SF-295) was 20.8 µM (inactive), the GI50 (SK-OV-3) was > 46.9 µM (inactive) and the GI50 (RXF 393) was 9.89 µM (inactive). For the same compound, the GI50 (HCT-15) was 4.81 µM, the GI50 (U-251) was 18.7 µM (inactive) and the GI50 (MOLT-4) was 2.63 µM (inactive). For the same compound, the GI50 (786-0) was 3.7 µM (inactive), the GI50 (HOP-92) was 4.63 µM (inactive) and the GI50 (PC-3) was 20.8 µM (inactive). For the same compound, the GI50 (HCC 2998) was 17 µM (inactive), the GI50 (NCI-H522) was 1.93 µM (inactive) and the GI50 (Malme-3M) was 7.6 µM (inactive). The GI50 (A549) was 24.8 µM (inactive), the GI50 (NCI-H23) was 20.5 µM (inactive) and the GI50 (T47D) was 10.8 µM (inactive).
